# Data as given in PubChem BioAssay (NCI).
# Values joined by “and” are separate entries in the source; they are usually repeats but may differ in a detail not shown here. Equal entries are not always repeated.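 Compound exposure: 48 hours, 5 concentrations, 96-well plates. GI50: concentration for 50% inhibition of growth. Definition used: TGI = concentration required for complete inhibition of growth.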
# Experiments:
# Experiment in all cases: DTP human tumour cell line panel, 48 h
# HCT-116 colon = test system: HCT-116 colon
# UACC-257 melanoma = test system: UACC-257 melanoma
# OVCAR-5 ovarian = test system: OVCAR-5 ovarian
# 786-0 renal = test system: 786-0 renal
# A498 renal = test system: A498 renal
# SK-MEL-5 melanoma = test system: SK-MEL-5 melanoma
# K-562 leukemia = test system: K-562 leukemia
# NCI-H23 lung = test system: NCI-H23 lung
# SK-MEL-28 melanoma = test system: SK-MEL-28 melanoma
# COLO 205 colon = test system: COLO 205 colon
Compound,GI50 (HCT-116 colon),TGI (HCT-116 colon),GI50 (UACC-257 melanoma),TGI (UACC-257 melanoma),GI50 (OVCAR-5 ovarian),TGI (OVCAR-5 ovarian),GI50 (786-0 renal),TGI (786-0 renal),GI50 (A498 renal),TGI (A498 renal),GI50 (SK-MEL-5 melanoma),TGI (SK-MEL-5 melanoma),GI50 (K-562 leukemia),TGI (K-562 leukemia),GI50 (NCI-H23 lung),TGI (NCI-H23 lung),GI50 (SK-MEL-28 melanoma),TGI (SK-MEL-28 melanoma),GI50 (COLO 205 colon),TGI (COLO 205 colon)
CCOc1nc(-c2ccccc2)cc2c(O)c(-c3nnco3)[nH]c(=O)c12,6.07 µM,> 100 µM,3.2 µM,> 100 µM,> 82.3 µM,> 100 µM,6.17 µM,31.9 µM,2.56 µM,58 µM,2.16 µM,8.18 µM,4.83 µM,> 100 µM,4.01 µM,> 100 µM,30.9 µM,> 100 µM,5.74 µM,> 100 µM
Cc1c2cccnc2c(C)c2c1c1cc(CO)ccc1n2C,0.42 µM,3.26 µM,1.51 µM,4.25 µM,0.618 µM,8.78 µM,2.17 µM,12.7 µM,0.104 µM,0.243 µM,1.75 µM,5.12 µM,1.66 µM,20.6 µM,2.31 µM,16 µM,3.01 µM,10.9 µM,1.51 µM,6.11 µM
CCOC(=O)/C=C/C(C(=O)/C=C/c1ccc(OC2CCCCO2)c(OC)c1)=C(O)\C=C\c1ccc(OC2CCCCO2)c(OC)c1 (stereo not drawn),2.09 µM,4.76 µM,19.8 µM,78.4 µM,7.81 µM,74.5 µM,4.96 µM,20.3 µM,18.3 µM,35.7 µM,4.44 µM,16.5 µM,2.62 µM,75 µM,5.9 µM,18.7 µM,2.48 µM,6.74 µM,3.1 µM,11.4 µM
COc1ccc2c(c1)C(C)Cc1c(Cl)ncnc1N2C (stereo not drawn),0.434 µM,4.56 µM,0.471 µM,23.3 µM,0.643 µM,> 100 µM,0.309 µM,5.45 µM,0.23 µM,0.744 µM,0.188 µM,0.353 µM,2.08 µM,> 100 µM,0.449 µM,11.5 µM,0.368 µM,46.1 µM,0.261 µM,0.777 µM
COc1ccc2c(c1)CCC1C2CC[C@@]2(C)C1CC1=CC(COC(C)=O)C3C(=O)c4ccccc4C(=O)C3C12 (stereo partly drawn),> 100 µM,> 100 µM,> 100 µM,> 100 µM,> 100 µM,> 100 µM,> 100 µM,> 100 µM,> 100 µM,> 100 µM,> 100 µM,> 100 µM,64.1 µM,> 100 µM,> 100 µM,> 100 µM,> 100 µM,> 100 µM,> 100 µM,> 100 µM
O=c1c2ccccc2[se]n1-c1cccnc1,,> 100 µM,,57.7 µM,,> 100 µM,,87.4 µM,,61.9 µM,,26.7 µM,,> 100 µM,,53.2 µM,,81 µM,,45.1 µM
O=C1CN=C(C[N+](=O)[O-])c2ccccc21,,> 100 µM,,> 100 µM,,> 100 µM,,> 100 µM,,> 100 µM,,> 100 µM,,> 100 µM,,> 100 µM,,> 100 µM,,> 100 µM
CNCCNc1c2c(c(NCCNC)c3c(CN(C)C)c[nH]c13)C(=O)c1ccccc1C2=O,1.55 µM,8.29 µM,20.1 µM,45.7 µM,2.95 µM,13.9 µM,4.87 µM,19.5 µM,1.41 µM,6.27 µM,2.98 µM,14.2 µM,1.81 µM,> 100 µM,2.22 µM,,9.59 µM,26.4 µM,,> 34.5 µM
COc1ncnc(C2CC2)c1-c1ncc2cnn(Cc3ccc(-c4nc(C(F)(F)F)cn4C(C)C)cc3)c2n1,22.2 µM,> 100 µM,18.4 µM,58.8 µM,26.2 µM,> 100 µM,31.4 µM,> 100 µM,24.5 µM,> 100 µM,12.6 µM,25.2 µM,13.9 µM,> 100 µM,21.8 µM,78 µM,19.1 µM,71.3 µM,23.5 µM,89.4 µM
O=C(O/N=C1/CCCC/C1=C\c1ccccc1)c1ccccc1,,> 100 µM,,> 100 µM,,> 100 µM,,> 100 µM,,0.514 µM,,0.34 µM,,41 µM,,> 100 µM,,> 100 µM,,> 100 µM
CC(=O)OC1Oc2ccccc2-c2oc(=O)c(-c3cc(=O)oc4cc(O)ccc34)cc21 (stereo not drawn),25 µM,> 100 µM,23.9 µM,79 µM,26.6 µM,57.2 µM,16.2 µM,38.4 µM,13.3 µM,40.4 µM,13.2 µM,26.5 µM,9.45 µM,> 100 µM,5.53 µM,25.6 µM,34.5 µM,> 100 µM,18.2 µM,51.2 µM
CC[C@]12C=CCN3CC[C@@]4(c5ccc(OC)cc5N(C)[C@H]4[C@@](O)(C(=O)OC)[C@@H]1OC(=O)CCC[P+](c1ccccc1)(c1ccccc1)c1ccccc1)[C@@H]32,0.727 µM and 0.627 µM,5.59 µM and 10.4 µM,0.364 µM and 0.275 µM,1.82 µM and 0.94 µM,1.19 µM and 1.38 µM,5.91 µM and 11 µM,2.13 µM,8.03 µM,1.71 µM and 1.97 µM,4.87 µM and 5.7 µM,0.817 µM and 1.65 µM,1.53 µM and 3.02 µM,0.561 µM and 0.421 µM,8.23 µM and 5.98 µM,1.11 µM and 0.984 µM,5.5 µM and 7.77 µM,0.274 µM and 0.442 µM,1.06 µM and 1.67 µM,0.161 µM and 0.208 µM,0.611 µM and 0.454 µM
Oc1[nH]c2ccccc2c1N=Nc1ccccc1Cl,,> 100 µM,,> 100 µM,,> 100 µM,,31.1 µM,,> 79.9 µM,,> 100 µM,,> 100 µM,,> 100 µM,,> 100 µM,,> 100 µM
C/C(=C\CCc1ccoc1)CC/C=C(\C)CCCC1=CC(=O)OC1,4.02 µM,18.8 µM,2.81 µM,11.3 µM,12.5 µM,68.9 µM,9.16 µM,42.2 µM,1.29 µM,16.5 µM,2.55 µM,6.66 µM,4.8 µM,> 100 µM,4.74 µM,29.6 µM,7.98 µM,46.7 µM,4.96 µM,23.1 µM
